Reference: US5235045A, “Non-azo naphthalimide dyes” (priority 1992, dated 1993)

What was measured:
[1] = tested on: various individual protein preparations; assay: Protein cross-linking with DiEd6Br and light (gel electrophoresis, general); assay type: biochemical
Text: Concomitant with the appearance of the heavier species with photoillumination with the decrease in intensity of electromigrated bands of the initially present protein.

[2] = tested on: Human High Density Lipoprotein (HDL), Apoprotein I; assay: Protein crosslinking with DiEd6Br: HDL; assay type: biochemical; conditions: 25.0 μM, 400 J/cm^2

## CCCCCCN1C(=O)c2cccc3c(NCCNC(=O)CCCCC(=O)NCCNc4c(Br)cc5c6c(cccc46)C(=O)N(CCCCCC)C5=O)c(Br)cc(c23)C1=O [Compound XLIV]
[1]; no light
  heavier molecular species in absence of light: complete absence of these species
[1]; photoirradiation nominally 420 nm
  heavier molecular species: formation of slower electromigrating, thus heavier, molecular species
[2]; Cremophor EL
  Inferred Crosslinked Species: 8 Apopro-
[2]; 8 Apoprotein I units
  Inferred Crosslinked Species, Gel mw: 141 kD
